Results on 20 compounds are retold here after patent USRE47689E1, “Compounds for treating spinal muscular atrophy” (PTC Therapeutics, Inc., priority 2011, dated 2019).

Read-outs that look alike come from different tables or passages of the source. Some results are limits rather than exact numbers.

Data set [1] has as its system SMN2 minigene (full length SMN2 minigene mRNA containing SMN2 exon 7). Nature of the data set: SMN2 minigene mRNA splicing RT-qPCR assay in cultured cells. In kind it is cell-based, human. The conditions noted are these: Homo sapiens, HEK293-H, read-out: EC1.5x for production of full length SMN2 mRNA. In outline: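 Read-out: full-length (exon 7-included) SMN2 minigene mRNA by multiplex RT-qPCR with GAPDH, efficiency-corrected (1+E)^−Ct, GAPDH-normalized and divided by vehicle. Stably transfected HEK293H cells, 24 h compound exposure, duplicates per concentration. Value is EC1.5x, reported as star ranges.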
On the technique in general: In qPCR the cycle at which signal appears reflects the starting amount.

Another data set deals with Smn protein. The experiment in a line: Smn protein assay in cultured cells (SMN HTRF). In kind it is cell-based, human. The conditions noted are these: for EC1.5x (concentration giving 1.5-fold Smn protein increase): read-out: EC1.5x for Smn protein expression. Summed up:
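Lysates in RIPA with protease inhibitors are incubated overnight at room temperature with HTRF anti-SMN antibodies. EC1.5x is derived from fold increase in ΔF over vehicle.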
For orientation: Time-resolved FRET reads energy transfer from a long-lived donor to a nearby acceptor.

Where [2] appears, read: HEK293H cells stably transfected with SMN2-A minigene, 24 hours, 7-point concentration curve, 1.5-fold relative to vehicle-treated cells.
Setting [3] is: SMA Type 1 patient fibroblast cells (GM03813), 48 hours, 7-point concentration curve, SMN HTRF, concentration producing 1.5 times Smn protein vs DMSO vehicle control.
Setting [4] is: SMA patient fibroblast cells, 48 hours, 7-point concentration data, fold increase relative to vehicle control (SMN HTRF).

The compound `Cc1cn2cc(-c3cc4ccc(C5CCN(C)CC5)cc4oc3=O)nc2cn1` [Compound 841, 3-(6-methylimidazo[1,2-a]pyrazin-2-yl)-7-(1-methylpiperidin-4-yl)-2H-chromen-2-one] displayed a melting point of 266 to 272 °C. In addition, in data set [1] (setting [2]), the EC (1.5-fold) is less than 0.1 µM. Besides, in the data set with Smn protein (setting [3]), the EC1.5x (concentration giving 1.5-fold Smn protein increase) was less than 300 nM. In addition, the “maximum fold (Fold) increase of Smn protein” value (from here on “maximum fold (Fold) increase”) in the data set on Smn protein (setting [4]) is reported as “***** (fold increase >1.65)”.
`O=c1oc2cc(N3CCN4CCC3CC4)ccc2cc1-c1cn2ccsc2n1` [Compound 438, 7-(1,4-diazabicyclo[3.2.2]non-4-yl)-3-(imidazo[2,1-b][1,3]thiazol-6-yl)-2H-chromen-2-one] gave a melting point greater than 300 °C. Besides, the EC (1.5-fold) in data set [1] (24 h) fell in the range of 0.1 to 0.3 µM. Also, in the data set with Smn protein, the “maximum fold (Fold) increase” value is “*** (key: *: maximum fold increase of ≤1.2; **: fold increase between >1.2 and ≤1.35; ***: fold increase between >1.35 and ≤1.5; ****: fold increase between >1.5 and ≤1.65; *****: fold increase >1.65)”; the EC1.5x (concentration giving 1.5-fold Smn protein increase) was 1000 to 3000 nM.
In turn, `Cc1c(-c2cn3cc(Cl)ccc3n2)c(=O)oc2cc(N3CCNCC3)ccc12` [Cpd 112, 3-(6-chloroimidazo[1,2-a]pyridin-2-yl)-4-methyl-7-(piperazin-1-yl)-2H-chromen-2-one] had a melting point of 224 to 227 °C. Besides, in data set [1] (setting [2]), the EC (1.5-fold) lay in the range of 3 to 30 µM. For the same compound, the “maximum fold (Fold) increase” value in the data set with Smn protein (setting [4]) was “* (maximum fold increase of ≤1.2)”.
As to `C[C@@H]1CN(c2ccc3cc(-c4cn5cc(Cl)cnc5n4)c(=O)oc3c2)CCN1` [Compound 350, 3-(6-chloroimidazo[1,2-a]pyrimidin-2-yl)-7-[(3R)-3-methylpiperazin-1-yl]-2H-chromen-2-one], the melting point fell in the range of 255 to 259 °C. For the same compound, in data set [1] (setting [2]), the EC (1.5-fold) lay in the range of 1 to 3 µM. The “maximum fold (Fold) increase” value in the data set on Smn protein (setting [4]) is recorded as “* (maximum fold increase of ≤1.2)”.
`Cc1cn2cc(-c3cc4ccc(N5CCN6CCC[C@H]6C5)cc4oc3=O)cc2cn1` [Compound 643, 7-[(8aS)-hexahydropyrrolo[1,2-a]pyrazin-2(1H)-yl]-3-(3-methylpyrrolo[1,2-a]pyrazin-7-yl)-2H-chromen-2-one] had a melting point of 182 to 184 °C. The EC (1.5-fold) in data set [1] (setting [2]) is less than 0.1 µM. Also, the EC1.5x (concentration giving 1.5-fold Smn protein increase) with Smn protein (setting [3]) is less than 300 nM. For the same compound, the “maximum fold (Fold) increase” value in the data set on Smn protein (setting [4]) is “**** (fold increase between >1.5 and ≤1.65)”.
For the compound `O=c1oc2cc(N3CCNCC3)ccc2cc1-c1cccc(C(F)(F)F)n1` [Compound 90, 7-(piperazin-1-yl)-3-[6-(trifluoromethyl)pyridin-2-yl]-2H-chromen-2-one], the melting point fell in the range of 158 to 160 °C. Moreover, the EC (1.5-fold) in data set [1] (setting [2]) lay within 0.3 to 1 µM. In addition, the “maximum fold (Fold) increase” value in the data set with Smn protein (setting [4]) is “*** (fold increase between >1.35 and ≤1.5)”.
For `Cc1ccn2nc(-c3cc4ccc(N5CCN(C)CC5)cc4oc3=O)cc2c1` [Compound 303, 7-(4-methylpiperazin-1-yl)-3-(5-methylpyrazolo[1,5-a]pyridin-2-yl)-2H-chromen-2-one], the melting point lay within 279 to 281 °C. Also, the EC (1.5-fold) in data set [1] (setting [2]) fell in the range of 0.3 to 1 µM. In addition, in the data set with Smn protein (setting [3]), the EC1.5x (concentration giving 1.5-fold Smn protein increase) lay within 3000 to 10000 nM. In addition, the “maximum fold (Fold) increase” value with Smn protein (setting [4]) was “*** (fold increase between >1.35 and ≤1.5)”.
Compound `Cc1cn2cc(-c3cc4ccc(OC5CCNCC5)cc4oc3=O)nc2c(C)n1` [Compound 897, 3-(6,8-dimethylimidazo[1,2-a]pyrazin-2-yl)-7-(piperidin-4-yloxy)-2H-chromen-2-one] showed a melting point of 172 to 177 °C. Moreover, the EC (1.5-fold) in data set [1] (setting [2]) was less than 0.1 µM. Also, the EC1.5x (concentration giving 1.5-fold Smn protein increase) with Smn protein (setting [3]) was less than 300 nM. Moreover, the “maximum fold (Fold) increase” value in the data set with Smn protein (setting [4]) is “***** (fold increase >1.65)”.
`Cc1cn2cc(-c3cc4ccc(N5CC6CC5CN6)cc4oc3=O)cc2c(C)n1` (stereo not shown) [Compound 783, 7-(2,5-diazabicyclo[2.2.1]hept-2-yl)-3-(1,3-dimethylpyrrolo[1,2-a]pyrazin-7-yl)-2H-chromen-2-one] came in with a melting point of 236 to 239 °C. The EC (1.5-fold) in data set [1] (setting [2]) is less than 0.1 µM. Besides, the “maximum fold (Fold) increase” value in the data set on Smn protein (setting [4]) was “*** (fold increase between >1.35 and ≤1.5)”.
`Cc1cn2cc(-c3cc4ccc(N5CCN(C6CC6)CC5)cc4oc3=O)nc2cn1` [Compound 811, 7-(4-cyclopropylpiperazin-1-yl)-3-(6-methylimidazo[1,2-a]pyrazin-2-yl)-2H-chromen-2-one] came in with a melting point of 287 to 289 °C. In data set [1] (setting [2]), the EC (1.5-fold) fell in the range of 0.3 to 1 µM. In addition, the EC1.5x (concentration giving 1.5-fold Smn protein increase) in the data set with Smn protein (setting [3]) lay in the range of 300 to 1000 nM. Besides, the “maximum fold (Fold) increase” value with Smn protein (setting [4]) was “**** (fold increase between >1.5 and ≤1.65)”.
Consider `CN1CCN(c2ccc3cc(-c4nc(-c5ccccc5)cs4)c(=O)oc3c2)CC1` [Compound 45, 7-(4-methylpiperazin-1-yl)-3-(4-phenyl-1,3-thiazol-2-yl)-2H-chromen-2-one], for which the melting point lay in the range of 205 to 210 °C. Further, the EC (1.5-fold) in data set [1] (setting [2]) was in the range of 3 to 30 µM. The “maximum fold (Fold) increase” value in the data set on Smn protein (setting [4]) is listed as “* (maximum fold increase of ≤1.2)”.
As for `Cc1cn2cc(-c3cc4ccc(N5CCC(N(C)C)CC5)cc4oc3=O)cc2cn1` [Compound 716, 7-[4-(dimethylamino)piperidin-1-yl]-3-(3-methylpyrrolo[1,2-a]pyrazin-7-yl)-2H-chromen-2-one], the melting point was in the range of 224 to 227 °C. Moreover, in data set [1] (setting [2]), the EC (1.5-fold) is less than 0.1 µM. Further, the EC1.5x (concentration giving 1.5-fold Smn protein increase) with Smn protein (setting [3]) was 1000 to 3000 nM. The “maximum fold (Fold) increase” value with Smn protein (setting [4]) was “**** (fold increase between >1.5 and ≤1.65)”.
On to `Cc1ccc2oc(-c3cc4ccc(N5CCN6CCC[C@H]6C5)cc4oc3=O)cc2n1` [Compound 722, 7-[(8aS)-hexahydropyrrolo[1,2-a]pyrazin-2(1H)-yl]-3-(5-methylfuro[3,2-b]pyridin-2-yl)-2H-chromen-2-one], for which the melting point lay within 228 to 230 °C. Moreover, the EC (1.5-fold) in data set [1] (setting [2]) lay in the range of 1 to 3 µM. For the same compound, the “maximum fold (Fold) increase” value in the data set with Smn protein (setting [4]) is on record as “* (maximum fold increase of ≤1.2)”.
Turning to `Cc1nccn2cc(-c3cc4ccc(N5CCN6CCC[C@@H]6C5)cc4oc3=O)cc12` [Compound 636, 7-[(8aR)-hexahydropyrrolo[1,2-a]pyrazin-2(1H)-yl]-3-(1-methylpyrrolo[1,2-a]pyrazin-7-yl)-2H-chromen-2-one], the melting point lay within 170 to 173 °C. For the same compound, in data set [1] (setting [2]), the EC (1.5-fold) is less than 0.1 µM. Also, the “maximum fold (Fold) increase” value in the data set with Smn protein (setting [4]) is “** (fold increase between >1.2 and ≤1.35)”.
`CCN1CCN(c2ccc3cc(-c4cn5cccc(C)c5n4)c(=O)oc3c2)CC1` [Compound 100, 7-(4-ethylpiperazin-1-yl)-3-(8-methylimidazo[1,2-a]pyridin-2-yl)-2H-chromen-2-one] showed a melting point of 211 to 213 °C. For the same compound, the EC (1.5-fold) in data set [1] (setting [2]) is 0.3 to 1 µM. In addition, the “maximum fold (Fold) increase” value with Smn protein (setting [4]) was “** (fold increase between >1.2 and ≤1.35)”.
Turning to `Cc1cn2cc(-c3cc4ccc(CCCNCC5CCCO5)cc4oc3=O)nc2c(C)n1` (stereo not shown) [Compound 932, 3-(6,8-dimethylimidazo[1,2-a]pyrazin-2-yl)-7-{3-[(tetrahydrofuran-2-ylmethyl)amino]propyl}-2H-chromen-2-one], the melting point lay in the range of 147 to 150 °C. For the same compound, the EC (1.5-fold) in data set [1] (setting [2]) was less than 0.1 µM. Also, in the data set with Smn protein (setting [3]), the EC1.5x (concentration giving 1.5-fold Smn protein increase) is less than 300 nM. Besides, in the data set with Smn protein (setting [4]), the “maximum fold (Fold) increase” value is “**** (fold increase between >1.5 and ≤1.65)”.
On to `Cc1cn2cc(-c3cc4ccc(CCNC(C)CO)cc4oc3=O)nc2c(C)n1` (stereo not shown) [Compound 872, 3-(6,8-dimethylimidazo[1,2-a]pyrazin-2-yl)-7-{2-[(1-hydroxypropan-2-yl)amino]ethyl}-2H-chromen-2-one], for which the melting point lay in the range of 203 to 206 °C. Also, in data set [1] (setting [2]), the EC (1.5-fold) was 0.1 to 0.3 µM. The EC1.5x (concentration giving 1.5-fold Smn protein increase) in the data set on Smn protein (setting [3]) was in the range of 300 to 1000 nM. In addition, in the data set with Smn protein (setting [4]), the “maximum fold (Fold) increase” value is “**** (fold increase between >1.5 and ≤1.65)”.
For the compound `O=c1oc2cc(N3CCN4CCC[C@H]4C3)ccc2cc1-c1cn2cccc(F)c2n1` [Compound 528, 3-(8-fluoroimidazo[1,2-a]pyridin-2-yl)-7-[(8aS)-hexahydropyrrolo[1,2-a]pyrazin-2(1H)-yl]-2H-chromen-2-one], the melting point lay in the range of 235 to 238 °C. Also, the EC (1.5-fold) in data set [1] (setting [2]) was in the range of 1 to 3 µM. Also, in the data set on Smn protein (setting [4]), the “maximum fold (Fold) increase” value is “** (fold increase between >1.2 and ≤1.35)”.
Compound `Cc1nccn2cc(-c3cc4ccc(O[C@@H]5CCNC5)cc4oc3=O)nc12` [Compound 610, 3-(8-methylimidazo[1,2-a]pyrazin-2-yl)-7-[(3R)-pyrrolidin-3-yloxy]-2H-chromen-2-one] had a melting point of 220 to 230 °C. Further, the EC (1.5-fold) in data set [1] (setting [2]) was 0.3 to 1 µM. In the data set with Smn protein (setting [4]), the “maximum fold (Fold) increase” value was “** (fold increase between >1.2 and ≤1.35)”.
In turn, `Cc1cn2cc(-c3cc4ccc(N5C[C@H]6CN(C)C[C@H]6C5)cc4oc3=O)nc2c(C)n1` [Compound 688, 3-(6,8-dimethylimidazo[1,2-a]pyrazin-2-yl)-7-[(3aR,6aS)-5-methylhexahydropyrrolo[3,4-c]pyrrol-2(1H)-yl]-2H-chromen-2-one] returned a melting point of 256 to 264 °C. The EC (1.5-fold) in data set [1] (setting [2]) was less than 0.1 µM. Further, the EC1.5x (concentration giving 1.5-fold Smn protein increase) with Smn protein (setting [3]) is less than 300 nM. In the data set with Smn protein (setting [4]), the “maximum fold (Fold) increase” value is “***** (fold increase >1.65)”.

A word on the melting point: it is the temperature of the solid-liquid transition.
